Results on 15 compounds are retold here after publication PMC7078479, “Sulfamoyl Heteroarylcarboxylic Acids as Promising Metallo-β-Lactamase Inhibitors for Controlling Bacterial Carbapenem Resistance” (mBio, 2020).

In general, MIC refers to the least concentration at which growth counts as inhibited. For orientation: Ki means a measure of affinity in units of concentration, obtained from inhibition or displacement.

Structures are written as SMILES.

Assay [1] concerns IMP producers rather than NDM/VIM producers. As to conditions: cited from earlier work.
The test system of another assay is E. coli DH5α/pBC-VIM-2. The assay can be described thus: Susceptibility and checkerboard testing, VIM-2-producing E. coli. Format: cell-based, Escherichia coli. As to conditions: Escherichia coli, read-out: MIC of CAZ without inhibitor. On the procedure: MICs were determined via the microdilution method according to the CLSI guidelines ([38]). In brief, 5 × 10^4 bacterial cells were inoculated in 100 μl of cation-adjusted Mueller-Hinton broth (Becton, Dickinson and Company, Franklin Lakes, NJ) containing the β-lactams and appropriately diluted inhibitors. The final concentration of DMSO was maintained at 2% in the assays. The tested plates were then incubated at 35°C for 16 to 20 h. The MIC value was determined as the lowest concentration of tested β-lactams where no bacterial growth was visibly observed. The optical density at 600 nm (OD600) value was measured using a plate reader for drawing the heat maps. The FIC index value was calculated using the following equation: FIC index=MIC of β-lactam with inhibitor/MIC of β-lactam alone+MIC of inhibitor with β-lactam/MIC of inhibitor alone
Unless noted otherwise, the FIC index was defined as the lowest value among all obtained values. The synergistic effect was defined as the effect observed when the FIC index value was ≤0.5.

Another assay has as its target T1, IMP-1 (Serratia marcescens, UniProt P52699).
T1 construct: made in house
The assay can be described thus: Inhibition of IPM hydrolysis by purified IMP-1, Ki by Lineweaver-Burk plots. In kind it is biochemical. On the procedure:
(§1) MBL (10 nM) was mixed with the inhibitors and incubated for 5 min at 30°C. IPM was added to reach a concentration of 150 μM, and the velocity of IPM hydrolysis was monitored at 298 nm. The assay was performed at 30°C using 10 mM HEPES (pH 7.5) buffer containing 200 mM NaCl and 50 μg/ml bovine serum albumin (BSA) for IMP-1, NDM-1, VIM-2, and SMB-1. For SFH-1 and L1, another 10 mM HEPES (pH 7.5) buffer containing 200 mM NaCl, 20 μM ZnSO4, and 50 μg/ml BSA was used.
(§2) Initial velocities (vo) were measured after varying the concentrations of IPM and inhibitors, and inverse velocities (1/vo) were plotted against inverse IPM concentrations […]. Lineweaver-Burk plots were constructed to obtain the inhibition constant (Ki) with the competitive inhibition model using the SigmaPlot 13 suite (Hulinks).

The target in a further assay is T2, VIM-2 (Escherichia coli, UniProt Q5U7L7).
T2 construct: made in house
The assay can be described thus: Inhibition of IPM hydrolysis by purified VIM-2, Ki by Lineweaver-Burk plots. Format: biochemical. As to conditions: IPM as substrate, competitive model, mean of three replicates; read-out: Inhibition constant Ki VIM-2. On the procedure: as §1, §2

In another assay the target is T3, NDM-1 (Klebsiella pneumoniae, UniProt C7C422).
T3 construct: made in house
The assay can be described thus: Inhibition of IPM hydrolysis by purified NDM-1, Ki by Lineweaver-Burk plots. In kind it is biochemical. As to conditions: IPM as substrate, competitive model, mean of three replicates; read-out: Inhibition constant Ki NDM-1. On the procedure:
as §1, §2

T1 sequence (P52699 19-246 limits assumed): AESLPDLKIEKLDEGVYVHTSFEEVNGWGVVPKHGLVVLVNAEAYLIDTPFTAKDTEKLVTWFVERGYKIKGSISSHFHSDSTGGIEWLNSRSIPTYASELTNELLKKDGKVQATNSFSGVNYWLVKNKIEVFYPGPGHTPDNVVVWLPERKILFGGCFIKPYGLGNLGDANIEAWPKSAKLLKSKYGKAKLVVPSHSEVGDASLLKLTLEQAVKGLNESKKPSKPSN
T3 sequence (C7C422 29-270 limits assumed): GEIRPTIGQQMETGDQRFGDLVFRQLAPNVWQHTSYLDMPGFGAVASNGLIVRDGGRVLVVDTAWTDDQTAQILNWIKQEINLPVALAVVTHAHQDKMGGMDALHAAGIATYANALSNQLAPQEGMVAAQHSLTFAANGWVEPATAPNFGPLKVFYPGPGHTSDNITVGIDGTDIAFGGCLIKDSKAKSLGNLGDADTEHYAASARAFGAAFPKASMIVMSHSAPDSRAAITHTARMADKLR

Regarding `N[C@H](CN[C@H](CN[C@@H](CC(=O)O)C(=O)O)C(=O)O)C(=O)O` [AMA, Aspergillomarasmine A], the “Selectivity between IMP and NDM/VIM producers” value in assay [1] is “superior for NDM/VIM”.
On to `O=C(O)c1ncsc1NS(=O)(=O)c1cccnc1` [ANT431], for which, in assay [1], the “Selectivity between IMP and NDM/VIM producers” value was “superior for NDM/VIM”.
Regarding `CC(C)(O/N=C(\C(=O)N[C@@H]1C(=O)N2C(C(=O)[O-])=C(C[n+]3ccccc3)CS[C@H]12)c1csc(N)n1)C(=O)O` [CAZ, ceftazidime, reference compound], the MIC with E. coli DH5α/pBC-VIM-2 turned out to be 16 µg/mL.
Take `NS(=O)(=O)c1sccc1C(=O)O` [Compound 1]: the inhibition constant (Ki) at IMP-1 was 34100 nM; at VIM-2, 15500 nM; on NDM-1, 7690 nM.
Turning to `NS(=O)(=O)c1sc(Cl)cc1C(=O)O` [Compound 2], the inhibition constant (Ki) turned out to be 19100 nM at IMP-1, 2290 nM on VIM-2 and 19300 nM at NDM-1.
The corresponding values for `CCc1oc(CC)c(S(N)(=O)=O)c1C(=O)O` [Compound 4, 2,5-diethyl-4-sulfamoylfuran-3-carboxylic acid] are 300 nM, 1010 nM and 920 nM.
With `CCCc1oc(CCC)c(S(N)(=O)=O)c1C(=O)O` [Compound 5, 2,5-dipropyl-4-sulfamoylfuran-3-carboxylic acid], the Ki on IMP-1 amounted to 380 nM; at VIM-2, 460 nM; at NDM-1, 510 nM.
On to `NS(=O)(=O)c1c(C2CCCC2)oc(C2CCCC2)c1C(=O)O` [Compound 6, 2,5-dicyclopentyl-4-sulfamoylfuran-3-carboxylic acid], for which the Ki on IMP-1 came to 1270 nM; on VIM-2, 760 nM; at NDM-1, 250 nM.
The corresponding values for `Cc1c(C(=O)O)c(S(N)(=O)=O)c(C)n1C` [Compound 7, 1,2,5-trimethyl-4-sulfamoylpyrrole-3-carboxylic acid] are 1230 nM, 420 nM and 9080 nM.
With `Cc1c(C(=O)O)c(S(N)(=O)=O)c(C)n1C1CC1` [Compound 9, 1-cyclopropyl-2,5-dimethyl-4-sulfamoylpyrrole-3-carboxylic acid], the Ki was 14100 nM at IMP-1, 1700 nM at VIM-2 and 4850 nM at NDM-1.
For `Cc1c(C(=O)O)c(S(N)(=O)=O)c(C)n1-c1ccccc1` [Compound 10, 2,5-dimethyl-1-phenyl-4-sulfamoylpyrrole-3-carboxylic acid] the same measures were 7510 nM, 20800 nM and 10200 nM.
Take `CC/C(C(=O)[O-])=C(\CC)C(=O)[O-].[Na+].[Na+]` [ME1071]: the “Selectivity between IMP and NDM/VIM producers” value in assay [1] is reported as “superior for IMP”.
In the case of `O=C(O)/C(S)=C/c1c(Cl)ccc(Cl)c1Cl` [ML302F], the “Selectivity between IMP and NDM/VIM producers” value in assay [1] is “superior for IMP”.
On to `CN1CCN(NC(=O)CN2C(=O)/C(=C/c3c(Cl)ccc(Cl)c3Cl)SC2=S)CC1` [ML302], for which the “Selectivity between IMP and NDM/VIM producers” value in assay [1] is listed as “superior for IMP”.
Take `NCCN[C@H]1CC[C@H](CC(=O)N[C@H]2Cc3cccc(C(=O)O)c3OB2O)CC1` [VNRX-5133, taniborbactam]: the “Selectivity between IMP and NDM/VIM producers” value in assay [1] is given as “superior for NDM/VIM”.
